Experimental data published in article PMC11013477, “Lycocasine A, a Lycopodium Alkaloid from Lycopodiastrum casuarinoides and Its Acid-Sensing Ion Channel 1a Inhibitory Activity” (Molecules, 2024).
Like-named read-outs stand apart in the source and are kept apart here.

Assays:
[1] = biological target: T1, ASIC1a (Homo sapiens, UniProt P78348); test: Whole-cell voltage-clamp recording of ASIC1a currents in transfected HEK293T cells; format: cell-based; settings: for inhibition at 50 µM: HEK-293T
T1 construct: expressed in transfected cells; host or cells: HEK293T
T1 sequence (P78348 1-528): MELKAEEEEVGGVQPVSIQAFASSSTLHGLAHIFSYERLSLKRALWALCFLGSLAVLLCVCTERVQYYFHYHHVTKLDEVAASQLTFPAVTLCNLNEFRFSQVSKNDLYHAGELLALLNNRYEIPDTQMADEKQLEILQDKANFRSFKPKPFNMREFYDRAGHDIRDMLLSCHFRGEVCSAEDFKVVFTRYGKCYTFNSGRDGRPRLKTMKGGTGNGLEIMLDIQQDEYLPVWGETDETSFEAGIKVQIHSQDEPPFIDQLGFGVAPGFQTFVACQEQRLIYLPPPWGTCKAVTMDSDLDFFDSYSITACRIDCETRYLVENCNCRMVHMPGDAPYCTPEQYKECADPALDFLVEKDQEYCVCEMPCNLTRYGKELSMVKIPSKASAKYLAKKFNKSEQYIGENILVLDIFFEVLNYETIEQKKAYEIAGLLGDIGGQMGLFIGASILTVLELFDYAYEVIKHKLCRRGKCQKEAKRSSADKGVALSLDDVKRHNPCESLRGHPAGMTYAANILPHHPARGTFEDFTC
Description: Cells were plated at a low density in 12-well plates 24 h prior to transfection. For transfection, Lipofectamine 3000 (Invitrogen, Thermo Fisher Scientific, Inc., Waltham, MA, USA) was utilized to introduce 300 ng of ASIC1a cDNA into adherent cells, which were then analyzed for 24–48 h post-transfection. […] Borosilicate glass micropipettes, fashioned to achieve a resistance of 2–6 MΩ, were filled with an intracellular recording solution comprising 140 mM KCl, 2 mM MgCl2, 5 mM EGTA, 5 mM NaCl, and 10 mM HEPES (adjusted to pH 7.4 with KOH). […] Current signals were amplified using a SUTTER IPA-2 amplifier, with data acquisition and analysis performed using SutterPatch 9.0 software. Data processing was carried out using GraphPad Prism version 8.0.

[2] = biological target: T1, ASIC1a; settings: read-out: IC50 ASIC1a inhibition; cited from earlier work
[3] = 50 μM, HEK293T cells transfected with ASIC1a, currents triggered by pH 6.0, holding potential −60 mV, read-out: inhibition rate of ASIC1a currents

SMILES	inhibition at 50 µM [1, 3] [%]	IC50 [2] [µM]	other results
CC1=C[C@H]2Cc3[nH]c(=O)ccc3[C@]3(C1)NCCC[C@H]23 [Compound 7, huperzine B]	< 30		
O=c1c(-c2ccc(O)cc2)coc2c([C@@H]3O[C@H](CO)[C@@H](O)[C@H](O)[C@H]3O)c(O)ccc12 [Puerarin]		9.31	
N=C(N)NC(=O)c1nc(Cl)c(N)nc1N [Amiloride]	> 50		
COC1=C[C@@H]2[C@@H]3Cc4ccc(OC)c(O)c4[C@]2(CCN3C)CC1=O [Sinomenine]		~1	
COc1cc2c(cc1O)[C@H](Cc1ccc(Oc3cc(C[C@@H]4NCCc5cc(OC)c(O)cc54)ccc3O)cc1)NCC2 [Lindoldhamine]		9	
C=CC1C2C=C(C)CC1(N(C)C)C1=C(C(=O)OC)C(=O)NC1(O)C2 (centres unmarked) [Compound 1, lycocasine A]			melting point: 187 to 189 °C; IC50 [1]: 48.7 ± 0.92 µM; inhibition at 50 µM ([1]; pH 6, read-out: inhibition rate of ASIC1a currents): > 50%
